Laboratory results taken from US20250319133A1, “METHODS FOR IMPROVING BONE HEALTH WITH BOVINE MILK EXOSOME-ENRICHED PRODUCTS AND VITAMIN K2” (ABBOTT LABORATORIES, priority 2022, published 2025).

Test system: MC3T3-E1 cells
Assay: Alizarin Red S (ARS) extracellular mineralization assay, calcium deposits
Type: cell-based, murine
Settings: 12 days in differentiation medium, 1 μM vitamin K2 and/or 15 μg/ml bovine milk exosomes
Experimental: Alizarin Red S (ARS) assay is an anthraquinone dye used to visualize and evaluate extracellular calcium deposits in cell culture. In embodiments of the invention, mineralization activity of differentiated osteoblasts are evaluated through ARS assay. To begin the assay, MC3T3-E1 pre-osteoblast cells were grown in MEM (minimum essential medium) culture medium supplemented with 10% v/v FBS (fetal bovine serum), […], 100 units/ml penicillin and 0.1 mg/ml streptomycin in a 5% CO2 and an atmosphere with 95% humidity. For osteogenic differentiation, these pre-osteoblast cells were seeded in 24-well plates at a density of 3×10^4 cells/well in complete medium for 1 day. The medium was then replaced by MEM containing 10% v/v FBS, […], 100 units/ml penicillin, 0.1 mg/ml streptomycin, […], and 50 μg/ml L-ascorbic acid. Specifically, three groups of MC3T3-E1 pre-osteoblast cells were treated. Group 1 was treated with 1 μM vitamin K2. Group 2 was treated with 15 μg/ml bovine milk exosomes. Group 3 was treated with a combination of 1 μM vitamin K2 and 15 μg/ml bovine milk exosomes. Group 4 was included as an untreated control group. In addition to analyzing Runx2 and LC3 molecular markers in Example 2, cell Groups 1-3 as described in Example 2 were treated in the presence of a differentiation medium for 12 days. […]

SMILES: CC(C)=CCC/C(C)=C/CC/C(C)=C/CC/C(C)=C/CC1=C(C)C(=O)c2ccccc2C1=O [vitamin K2]
- calcium deposits (extracellular matrix mineralization), ARS micrographs: abundant calcium deposits
